Test results from ChEMBL document CHEMBL5096155, “Recent advance of peptide-based molecules and nonpeptidic small-molecules modulating PD-1/PD-L1 protein-protein interaction or targeting PD-L1 protein degradation” (Eur J Med Chem, 2021).
Square brackets hold non-standard residues; d marks the D form. Peptide text beside a SMILES is read from it. * marks the point of attachment. ξ: configuration not given here. X1 = NC(CO)C(=O)NC(Cc1ccccc1)C(=O)NCCCCN*; ξE = NC(CCC(=O)O)C(=O)O

Assays:
Splenocyte [1] = experiment: Cytoprotective activity against mouse splenocyte co-cultured with MDA-MB-231 cells overexpressing PD-L1 assessed as rescue of cell proliferation at 100 nM by cell proliferation assay; assay type: functional
Splenocyte [2] = experiment: Rescue of cell viability in mouse PD-L1 stimulated splenocyte at 100 nM incubated for 72 hrs by CFSE proliferation assay; assay type: functional
[3] = molecular target: T1, Programmed cell death protein 1/Programmed cell death 1 ligand 1 (Homo sapiens, UniProt Q15116+Q9NZQ7); experiment: Inhibition of human PD-1/PD-L1 interaction by HTRF binding assay; assay type: protein-complex assay
T1 sequence (Q15116 whole entry): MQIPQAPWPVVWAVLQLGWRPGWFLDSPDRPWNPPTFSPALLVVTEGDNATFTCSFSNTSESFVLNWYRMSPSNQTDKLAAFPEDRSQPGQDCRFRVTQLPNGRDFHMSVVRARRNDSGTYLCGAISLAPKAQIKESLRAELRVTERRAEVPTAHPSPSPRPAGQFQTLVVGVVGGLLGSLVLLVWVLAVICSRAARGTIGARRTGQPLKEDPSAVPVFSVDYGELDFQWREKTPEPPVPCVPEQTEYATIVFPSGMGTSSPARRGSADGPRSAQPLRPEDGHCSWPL
T1 sequence (Q9NZQ7 whole entry): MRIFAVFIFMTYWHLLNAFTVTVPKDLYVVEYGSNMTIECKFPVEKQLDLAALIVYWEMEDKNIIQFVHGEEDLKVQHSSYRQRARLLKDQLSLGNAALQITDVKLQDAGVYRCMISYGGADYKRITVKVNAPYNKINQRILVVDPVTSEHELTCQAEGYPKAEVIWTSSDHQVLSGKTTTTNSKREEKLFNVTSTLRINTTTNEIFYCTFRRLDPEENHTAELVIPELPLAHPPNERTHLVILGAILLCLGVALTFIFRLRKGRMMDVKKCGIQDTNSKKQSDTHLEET

[4] = molecular target: T1, Programmed cell death protein 1/Programmed cell death 1 ligand 1; experiment: Inhibition of recombinant human PD-1/PD-L1 interaction incubated for 40 mins by HTRF binding assay; assay type: protein-complex assay
[5] = molecular target: T1, Programmed cell death protein 1/Programmed cell death 1 ligand 1; experiment: Inhibition of PD-1/PD-L1 interaction (unknown origin); assay type: protein-complex assay
B16-F10 [6] = experiment: Antitumor activity in mouse B16-F10 cells xenografted mouse lung metastasis model assessed as reduction in lung metastasis; assay type: functional; design: scale not given: the % may be the effect or the level left
[7] = molecular target: T1, Programmed cell death protein 1/Programmed cell death 1 ligand 1; experiment: Inhibition of PD-1/PD-L1 interaction (unknown origin) by HTRF binding assay; assay type: protein-complex assay
B16-F10 [8] = experiment: Antitumor activity in mouse B16-F10 cells xenografted mouse model assessed as tumor growth inhibition at 15 mg/kg,sc; assay type: functional
[9] = Cytoprotective activity against rat PMA-stimulated PBMC cells expressing PD-1 co-cultured with human MDA-MB-231 cells expressing PD-L1 assessed as rescue of cell proliferation by cell proliferation assay; assay type: functional, cell-based
[10] = Cytoprotective activity against rat PMA-stimulated PBMC cells expressing PD-1 co-cultured with human HEK293 cells expressing PD-L2 assessed as rescue of cell proliferation by cell proliferation assay; assay type: functional, cell-based
[11] = molecular target: T1, Programmed cell death protein 1/Programmed cell death 1 ligand 1; experiment: Inhibition of PD-1/PD-L1 interaction (unknown origin) incubated for 15 mins by HTRF assay; assay type: protein-complex assay
[12] = molecular target: T1, Programmed cell death protein 1/Programmed cell death 1 ligand 1; experiment: Inhibition of PD-1/PD-L1 interaction (unknown origin) incubated for 1 to 24 hrs by HTRF assay; assay type: protein-complex assay
CT26 = experiment: Antitumor activity against mouse CT26 cells xenografted BALB/c mouse assessed as reduction in tumor growth; assay type: functional; design: scale not given: the % may be the effect or the level left
[13] = molecular target: T2, V-type immunoglobulin domain-containing suppressor of T-cell activation (Homo sapiens, UniProt Q9H7M9); experiment: Inhibition of VISTA (unknown origin)
T2 sequence (Q9H7M9 whole entry): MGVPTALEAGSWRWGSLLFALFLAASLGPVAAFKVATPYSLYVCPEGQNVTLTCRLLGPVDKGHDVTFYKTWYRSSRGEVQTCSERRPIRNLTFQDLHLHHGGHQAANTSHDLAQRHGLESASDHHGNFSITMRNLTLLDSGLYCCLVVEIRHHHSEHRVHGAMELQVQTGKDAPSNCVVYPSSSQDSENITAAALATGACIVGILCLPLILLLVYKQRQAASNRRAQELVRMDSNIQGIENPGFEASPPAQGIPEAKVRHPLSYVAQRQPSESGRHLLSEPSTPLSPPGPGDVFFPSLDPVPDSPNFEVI

[14] = molecular target: T3, Programmed cell death 1 ligand 1 (Homo sapiens, UniProt Q9NZQ7); experiment: Inhibition of PD-L1 (unknown origin)
T3 sequence (Q9NZQ7 whole entry): as the sequence (Q9NZQ7 whole entry) above

[15] = molecular target: T3, Programmed cell death 1 ligand 1; experiment: Binding affinity to human recombinant PD-L1 by surface plasmon resonance assay
NCI-H460 = experiment: Antitumor activity in human NCI-H460 cells xenografted Balb/c mouse assessed as reduction in tumor mass at 4 mg/kg,sc administrated upto 72 hrs; assay type: functional; design: scale not given: the % may be the effect or the level left
[16] = Cytoprotective activity against mouse PD-1 stimulated T cell assessed as rescue of PD-1 stimulated inhibition of IFN-gamma production by ELISA; assay type: functional, cell-based

In the case of `NCCCC[C@H](NC(=O)N[C@@H](CC(N)=O)C(=O)NNC(=O)[C@@H](N)CO)C(=O)O`, the Activity (Splenocyte [1]) is reported as 87%.
Work on `C[C@@H](O)[C@H](N)c1noc([C@H](Cc2ccc(O)cc2)NC(=O)N2CCC[C@H]2C(=O)O)n1` yielded an Activity (Splenocyte [2]) of 99%.
`COc1nc(OCc2cccc(-c3cccc(COc4ccc(CNCCNC(C)=O)c(OC)n4)c3C)c2C)ccc1CNCCNC(C)=O` showed an IC50 [3] of 125 nM.
`N#Cc1c(NC(=O)c2ccc(CNCCO)cn2)cccc1-c1ccccc1` gave an IC50 [4] of less than 10 nM.
For `Cc1c(-c2ccccc2)cccc1-c1nc2cc(CNCCO)ccc2o1`, the IC50 [5] was less than 1000 nM.
For `Cc1c(NC(=O)c2cc(CN3CCCC[C@H]3C(=O)O)cn(C)c2=O)cccc1-c1ccccc1`, the IC50 [4] was less than 100 nM.
For `C[C@H](O)[C@@H]1NC(=O)CCOCCOCCNC(=O)[C@H](CO)NC(=O)N[C@H](C(N)=O)C(=O)NNC1=O`, the Activity (Splenocyte [2]) was 94%.
`C[C@@H](O)[C@@H]1NC(=O)C(N[C@@H](CO)C(=O)O)CCC(=O)NCCCCC(C(=O)N[C@@H](CO)C(=O)N[C@@H](Cc2ccccc2)C(N)=O)NC(=O)[C@H](CO)NC1=O` (some centres undefined) showed an Activity (B16-F10 [6]) of 54%.
In the case of `Cc1cc(CN[C@@H](CO)C(=O)O)c(OCc2cncc(C#N)c2)cc1OCc1cccc(-c2ccc3c(c2)OCCO3)c1C`, the IC50 [7] is reported as 2.25 nM.
In the case of `O=C(O)[C@H](CO)NCc1cc(Cl)c(OCc2cccc(-c3ccccc3)c2Br)cc1OCc1cccnc1`, the inhibition in vivo at 15 mg/kg (B16-F10 [8]) is reported as 64.1%.
For `Cc1c(COc2cc(OCc3cccc(C#N)c3)c(CN[C@@H](CO)C(=O)O)cc2Cl)cccc1-c1ccc2c(c1)OCCO2`, the IC50 [7] was 1.48 nM.
`Cc1c(COc2cc(OCc3cccc(C#N)c3)c(CN[C@H](CCO)C(=O)O)cc2Cl)cccc1-c1cccc(COc2cc(OCc3cccnc3)c(CN[C@@H](CCO)C(=O)O)cc2Cl)c1` showed an IC50 [7] of 0.04 nM.
`C[C@H](O)[C@H](NC(=O)N[C@@H](CC(N)=O)C(=O)NNC(=O)[C@@H](N)CO)C(=O)O` gave an EC50 [9] of 30 nM, an Activity (Splenocyte [2]) of 68% and an EC50 [10] of 40 nM. It also gave an Activity (Splenocyte [1]) of 87%.
With `CNC(=O)C[C@@H]1NC(=O)O[C@@H]([C@H](C)O)C(=O)NCCOCCOCC(=O)N[C@@H](CCO)c2noc1n2` the IC50 [11] was less than 10 nM.
Work on `C[C@H](O)[C@@H]1NC(=O)NCc2nc(no2)[C@H](CO)NC(=O)COCCOCCNC1=O` yielded an IC50 [11] of less than 10 nM.
In the case of `Cc1c(/C=C/c2nc(CNC(C)(CO)C(=O)O)ccc2C(F)(F)F)cccc1-c1ccc2c(c1)OCCO2` (centres undefined), the IC50 [12] is reported as 18 nM.
Work on `COc1cc(/C=C/c2cccc(-c3ccccc3)c2)cc(OC)c1CN[C@](C)(CO)C(=O)O` yielded an IC50 [12] of 48 nM.
`CC(O)[C@H](N)c1nnc([C@]2(NC(=O)N[C@@H](CO)C(=O)O)C[C@H](CC#N)C2)o1` (some centres undefined) showed an Activity (CT26) of 63.7%.
Work on `Cc1c(COc2cc(OCc3cncc(C#N)c3)c(CN[C@@H](CO)C(=O)O)cc2Cl)cccc1-c1cccc(OCCCN2CCC(O)CC2)c1` yielded an IC50 [7] of 0.48 nM.
In the case of `C[C@H](O)[C@H](NC(=O)N[C@@H](CC(N)=O)c1nnc([C@@H](N)CO)s1)C(=O)O`, the IC50 [13] is reported as 17 nM and the IC50 [14] is reported as 37 nM.
`CC[C@H](C)[C@H](NC(=O)[C@H](CCC(N)=O)NC(=O)[C@H](C)NC(=O)[C@H](CCCCN)NC(=O)[C@H]1CCCN1C(=O)[C@H](C)NC(=O)[C@H](CC(C)C)NC(=O)[C@H](CCC(N)=O)NC(=O)[C@@H](NC(=O)[C@@H](NC(=O)[C@H](CCCNC(=N)N)NC(=O)[C@H](Cc1ccccc1)NC(=O)[C@H](CCCCNC(=O)[C@H](Cc1ccccc1)NC(=O)[C@H](CO)NC(=O)[C@H](CCC(=O)O)NC(=O)[C@H](CO)NC(=O)[C@@H](NC(=O)[C@H](CC(N)=O)NC(=O)[C@@H](N)CO)C(C)O)NC(=O)[C@H](Cc1ccccc1)NC(=O)[C@H](CO)NC(=O)[C@H](CCC(=O)O)NC(=O)[C@H](CO)NC(=O)[C@@H](NC(=O)[C@H](CC(N)=O)NC(=O)[C@@H](N)CO)[C@@H](C)O)C(C)C)[C@@H](C)O)C(=O)N[C@@H](CCCCN)C(=O)N[C@@H](CCC(=O)O)C(N)=O` (some centres undefined) gave an EC50 [9] of 0.41 nM and an EC50 [10] of 0.72 nM.
`C[C@H](O)[C@@H]1NC(=O)N[C@H](C(N)=O)C(=O)NNC(=O)[C@H](CO)NC(=O)CCOCCOCCNC1=O` gave an Activity (Splenocyte [2]) of 95%.
In the case of `N#Cc1c(-c2ccccc2)cccc1N1CCC(NC2CCCOC2)CC1` (centres undefined), the IC50 [5] is reported as less than 1000 nM.
In the case of `C[C@@H](O)[C@H](N)c1nnc([C@H](CCC(N)=O)NC(=O)N[C@@H](CO)C(=O)O)o1`, the Activity (Splenocyte [2]) is reported as 92%.
With `C[C@H](NC(=O)[C@H](Cc1ccc(O)cc1)NC(=O)[C@H](CCC(N)=O)NC(=O)CNC(=O)[C@@H](N)CO)C(=O)N[C@@H](CO)C(=O)N[C@@H](Cc1ccc(O)cc1)C(=O)N[C@@H](Cc1cnc[nH]1)C(=O)N[C@@H](CS)C(=O)N[C@@H](Cc1c[nH]c2ccccc12)C(=O)N[C@@H](CS)C(=O)N[C@@H](Cc1c[nH]c2ccccc12)C(=O)N[C@@H](CCCNC(=N)N)C(=O)N[C@@H](CC(=O)O)C(=O)N1CCC[C@H]1C(=O)NCC(=O)N[C@@H](CCCNC(=N)N)C(=O)N[C@@H](CO)C(=O)NCC(=O)NCC(=O)N[C@@H](CO)C(=O)N[C@@H](CCCCN)C(=O)O` (H-SGQYASYHCWCWRDPGRSGGSK-OH) the Kd [15] was 94 nM and the Activity (NCI-H460) was 56%.
Work on `C[C@@H](O)[C@H](NC(=O)[C@H](CC(N)=O)NC(=O)[C@@H](N)CO)C(=O)N[C@@H](CO)C(=O)NC(CCC(=O)NCCCCNC(=O)C(Cc1ccccc1)NC(=O)C(N)CO)C(N)=O` (some centres undefined) (H-SNTS[ξE](X1)-NH2) yielded an Activity (B16-F10 [6]) of 64%.
For `COc1cc(NS(=O)(=O)c2ccc(N)cc2)ncn1` [SULFAMONOMETHOXINE], the IC50 [16] was greater than 400 nM.
H-GNWDYNSQRAQLYNQ-OH showed a Kd [15] of 1380 nM.
